Results from patent US12286452B2, “Amphiphilic aminoglycoside connexin hemichannel inhibitors” (Texas Tech University System, priority 2018, dated 2025).
Read-outs that look alike come from different tables or passages of the source.

Columns and labels:
human Cx26 HCs = biological target: T1, human Cx26 HCs (Homo sapiens, UniProt P29033); test: Cx26-dependent growth complementation assay in E. coli LB2003; format: cell-based
T1 construct: expressed in transfected cells; host or cells: E. coli LB2003 (carrying pREP4), transformed with pQE-Cx26, IPTG-induced
Method: These derivatives were prepared by sequential benzylation and methylation followed by reduction of azido groups or hydrogenolysis of the Bn. […] Connexin HC inhibition was conducted using a bacteria-based assay of HC function^39. In this assay, Cx26 HCs are expressed in E. coli LB2003 cells, which lack three major K^+ uptake systems (Kdp, Kup and Trk), and as a result they cannot grow in low-[K^+] media^39-41. However, growth of this E. coli strain in low-[K^+] medium can be rescued by expression of K^+-permeable channels such as connexin HCs^39, 42-43. Under the conditions of the assay (LB2003 cells expressing HCs and grown in low-K^+ medium), inhibition of the HCs reduces or abolishes growth^39, 42-43. This is a simple assay where bacterial growth in multi-well plates can be followed by measuring the absorbance at 600 nm (OD600)^29.
LB2003 cells generously provided by Dr. E. P. Bakker (Osnabruk University, Osnabruk, Germany) were transformed with the plasmid pQE-Cx26 (human Cx26 into pQE60) and pREP4. […] LB2003 cells cannot grow in low-[K^+] media because of insufficient K^+ uptake for growth due to the knockout of three key K^+ transporters (Atrk, Akup, Akdp strain)^2-4. Details and validation of the growth complementation assay have been published recently^2. In brief, competent LB2003 containing the pREP4 plasmid were transformed with pQE-Cx26. These cells were grown overnight in Luria-Bertani medium (BD, Franklin Lakes, NJ, USA) supplemented with 100 mM KCl (to allow growth) and 0.4 mg/mL ampicillin, and then washed four times with NLM (see below), to remove residual K^+ from the Luria-Bertani medium. The washed cells were resuspended in complementation growth medium to an OD600 of 0.2. NLM contained 46 mM Na2HPO4, 23 mM NaH2PO4, 8 mM (NH4)2SO4, 0.4 mM MgSO4, 0.012 mM FeSO4, 1 mM sodium citrate, 44 mM glucose and 0.006 mM thiamine hydrochloride, pH 7.0. KLM had the same composition that NLM except for the equimolar replacement of Na^+ with K^+. For growth complementation we used NLM+4 mM KCl, and Cx26 expression was induced with 0.5 mM IPTG at the time of dilution to OD600=0.2. For the assay, the cells were seeded in 96-well plates and were incubated at 30° C., with shaking at 500 rpm. OD600 was measured after 18-h incubation in a plate reader. The initial OD600=0.2 was subtracted for growth calculations. Data are presented as means±SEM. Statistically significant differences were calculated by the Student t-test for unpaired data. Data were obtained from at least 3 independent experiments, with 3 repeats per experiment.

Cx43 HCs = biological target: T2, Cx43 HCs (Homo sapiens, UniProt P17302); test: Cx43-dependent growth complementation assay in E. coli LB2003; format: cell-based; conditions: for Cx43/Cx26 Selectivity: IC50 Cx26/IC50 Cx43
T2 construct: expressed in transfected cells

[1] = 4″,6″-disubstituted AKs, Table 5, read-out: Cx26 IC50
[2] = K46 members, the 20th table, read-out: IC50 (μM) against Cx26
[3] = read-out: IC50, inhibition of Cx26 by kanamycin A and synthetic AGs, first Table 1
[4] = 4″,6″-disubstituted AKs, Table 5, read-out: Cx43 IC50
[5] = K46 members, the 20th table, read-out: IC50 (μM) against Cx43
[6] = the 13th table, read-out: Cx43 IC50
[7] = first Table 2, read-out: IC50, inhibition of Cx26 by synthetic AGs

T2 sequence (P17302 whole entry): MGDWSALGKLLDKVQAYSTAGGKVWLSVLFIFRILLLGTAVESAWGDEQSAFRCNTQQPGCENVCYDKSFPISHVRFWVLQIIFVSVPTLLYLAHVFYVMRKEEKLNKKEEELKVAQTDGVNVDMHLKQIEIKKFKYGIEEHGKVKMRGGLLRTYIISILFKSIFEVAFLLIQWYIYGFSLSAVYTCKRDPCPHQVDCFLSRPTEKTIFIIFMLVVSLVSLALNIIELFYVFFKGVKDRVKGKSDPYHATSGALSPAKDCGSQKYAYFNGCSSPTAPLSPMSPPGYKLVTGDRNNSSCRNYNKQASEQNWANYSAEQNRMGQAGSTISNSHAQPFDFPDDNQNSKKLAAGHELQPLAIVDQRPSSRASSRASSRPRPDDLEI

For `CCCCOCC1OC(OC2C(N)CC(N)C(OC3OC(CN)C(O)C(O)C3O)C2O)C(O)C(N)C1OCCCC` (stereo not drawn) [Compound 2], the IC50 (human Cx26 HCs; [1]) was 19 ± 2 µM, the IC50 (human Cx26 HCs; [2]) was 19 ± 2.8 µM and the IC50 (human Cx26 HCs; [3]) was 19 ± 2.8 µM.

Compound `CCCCCCOC[C@H]1O[C@H](O[C@@H]2[C@@H](O)[C@H](O[C@H]3O[C@H](CN)[C@@H](O)[C@H](O)[C@H]3O)[C@@H](N)C[C@H]2N)[C@H](O)[C@@H](N)[C@@H]1OCCCCCC` [Compound 3] has an IC50 (human Cx26 HCs; [1]) of 6.2 ± 1.4 µM, an IC50 (human Cx26 HCs; [2]) of 6.2 ± 1.4 µM and an IC50 (human Cx26 HCs; [3]) of 6.2 ± 1.4 µM.

`CCCCCCO[C@H]1[C@H](N)[C@@H](O)[C@@H](O[C@@H]2[C@@H](O)[C@H](O[C@H]3O[C@H](CN)[C@@H](O)[C@H](O)[C@H]3O)[C@@H](N)C[C@H]2N)O[C@@H]1CO` [Compound 4] gave an IC50 (human Cx26 HCs; first Table 1) of 13.5 ± 1.8 µM.

In the case of `CCCCCCCCOC[C@H]1OC(O[C@@H]2C(N)CC(N)C(O[C@H]3OC(CN)[C@@H](O)[C@H](O)C3O)[C@@H]2O)[C@H](O)[C@H](N)C1OCCCCCCCC` (stereo partly drawn) [Compound 5], the IC50 (Cx43 HCs; [4]) is reported as 11.4 ± 4.3 µM, the “Cx43/Cx26 Selectivity” value (Cx43 HCs; Table 5) is reported as 1.19 and the IC50 (Cx43 HCs; [5]) is reported as 26.6 ± 7.8 µM. For the same compound, the “Cx43 Imax” value (Cx43 HCs; the 13th table) was 119 ± 8%, the IC50 (Cx43 HCs; [6]) was 11.4 ± 4.3 µM and the IC50 (human Cx26 HCs; [1]) was 13.6 ± 0.5 µM. For the same compound, the IC50 (human Cx26 HCs; [2]) was 13.6 ± 0.5 µM, the IC50 (human Cx26 HCs; [3]) was 13.6 ± 0.5 µM and the “Cx26 Imax” value (human Cx26 HCs; the 13th table) was 94 ± 2%. The IC50 (human Cx26 HCs; the 13th table, read-out: Cx26 IC50) was 13.5 ± 0.5 µM.

Compound `CCCCCCCCCOC[C@H]1O[C@H](O[C@H]2[C@H](O)[C@@H](O[C@H]3O[C@H](CN)[C@@H](O)[C@H](O)[C@H]3O)[C@H](N)C[C@@H]2N)[C@H](O)[C@@H](N)[C@@H]1OCCCCCCCCC` [Compound 6] has an IC50 (human Cx26 HCs; [1]) of 18.8 ± 1.3 µM, an IC50 (human Cx26 HCs; [2]) of 18.8 ± 1.3 µM and an IC50 (human Cx26 HCs; [3]) of 18.8 ± 1.3 µM.

`COC1C(OC2C(N)CC(N)C(OC3OC(CN)C(OC)C(OC)C3OC)C2OC)OC(COCc2ccccc2)C(OCc2ccccc2)C1N` (stereo not drawn) [Compound 8, 5, 2′, 3′, 4′, 2″-Penta-O-methyl-4″,6″-di-O-benzylkanamycin] was tested, and the IC50 (human Cx26 HCs; [2]) was 8.4 ± 1.4 µM and the IC50 (human Cx26 HCs; [3]) was 8.4 ± 1.4 µM.

For `COC1C(OC2C(N)CC(N)C(OC3OC(CN)C(OC)C(OC)C3OC)C2OC)OC(CO)C(O)C1N` (stereo not drawn) [Compound 9, 5, 2′, 3′, 4′, 2″-Penta-O-methyl-kanamycin], the “inhibition of Cx26 HCs (in words)” value (human Cx26 HCs) was “lack of inhibitory activity” and the “IC50, inhibition of Cx26 by kanamycin A and synthetic AGs” value (human Cx26 HCs; first Table 1) was “No inhibition at 100 μM”.

`COc1ccc(COCC2OC(OC3C(N)CC(N)C(OC4OC(CN)C(O)C(O)C4O)C3O)C(O)C(N)C2OCc2ccc(OC)cc2)cc1` (stereo not drawn) [Compound 10, 4″,6″-Di-O-(4-methoxybenzyl) kanamycin] was tested, and the IC50 (Cx43 HCs; [4]) was 4.1 ± 1.5 µM, the “Cx43/Cx26 Selectivity” value (Cx43 HCs; Table 5, listed as 2b) was 3.17 and the IC50 (Cx43 HCs; [5]) was 4.1 ± 1.5 µM. The IC50 (Cx43 HCs; the 12th table, Hill fit, mean ± SEM, some n = 1, read-out: Cx43 IC50) was 4.1 ± 1.5 µM and the IC50 (human Cx26 HCs; [7]) was 13 ± 0.7 µM.

With `Cc1ccc(COCC2OC(OC3C(N)CC(N)C(OC4OC(CN)C(O)C(O)C4O)C3O)C(O)C(N)C2OCc2ccc(C)cc2)cc1` (stereo not drawn) [Compound 11, 4″,6″-Di-O-(4-methylbenzyl) kanamycin] the IC50 (Cx43 HCs; [4]) was 3.1 ± 0.9 µM, the “Cx43/Cx26 Selectivity” value (Cx43 HCs; Table 5) was 1.39 and the IC50 (Cx43 HCs; [5]) was 3.1 ± 0.9 µM. The “Cx43 Imax” value (Cx43 HCs; the 13th table) was 80.4 ± 6%, the IC50 (Cx43 HCs; [6]) was 3.1 ± 0.9 µM and the IC50 (human Cx26 HCs; [7]) was 4.3 ± 0.4 µM. For the same compound, the “Cx26 Imax” value (human Cx26 HCs; the 13th table) was 102 ± 3%.
